The assay addresses T1, SMO (Mus musculus, UniProt P56726).
T1 construct: endogenous in cells; host or cells: C3H10T1/2 (ATCC #CCL-226)
In words: Smoothened (SMO)/Sonic Hedgehog (SHh) Transient Transcriptional Activation Assay (Gli-luciferase reporter in C3H10T1/2 cells). In kind it is cell-based, murine. The conditions noted are these: SHh 250 ng/ml, 20 hrs; for inhibition at 2 µM: C3H 10T1/2, 2 μM test compound, read-out: SMO CELL % INHIBITION @ 2 μM. Put shortly:
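C3H10T1/2 cells transiently transfected with a 10× murine Gli-responsive firefly luciferase reporter plus pEGFP, serum-starved 20 h in 0.5% calf serum, then treated with compounds (2 uM–2 nM final) and 250 ng/ml recombinant human SHh for 20 h at 37 °C. Read-out: Dual-Glo luminescence.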
(In a reporter assay the amount or activity of a reporter protein is the signal.)

Structures are written as SMILES. Structures can show the parent of a compound that is named as a salt.

A word on the inhibition: it is the change of the read-out against control, counted positive when it falls.

T1 sequence (P56726 33-793): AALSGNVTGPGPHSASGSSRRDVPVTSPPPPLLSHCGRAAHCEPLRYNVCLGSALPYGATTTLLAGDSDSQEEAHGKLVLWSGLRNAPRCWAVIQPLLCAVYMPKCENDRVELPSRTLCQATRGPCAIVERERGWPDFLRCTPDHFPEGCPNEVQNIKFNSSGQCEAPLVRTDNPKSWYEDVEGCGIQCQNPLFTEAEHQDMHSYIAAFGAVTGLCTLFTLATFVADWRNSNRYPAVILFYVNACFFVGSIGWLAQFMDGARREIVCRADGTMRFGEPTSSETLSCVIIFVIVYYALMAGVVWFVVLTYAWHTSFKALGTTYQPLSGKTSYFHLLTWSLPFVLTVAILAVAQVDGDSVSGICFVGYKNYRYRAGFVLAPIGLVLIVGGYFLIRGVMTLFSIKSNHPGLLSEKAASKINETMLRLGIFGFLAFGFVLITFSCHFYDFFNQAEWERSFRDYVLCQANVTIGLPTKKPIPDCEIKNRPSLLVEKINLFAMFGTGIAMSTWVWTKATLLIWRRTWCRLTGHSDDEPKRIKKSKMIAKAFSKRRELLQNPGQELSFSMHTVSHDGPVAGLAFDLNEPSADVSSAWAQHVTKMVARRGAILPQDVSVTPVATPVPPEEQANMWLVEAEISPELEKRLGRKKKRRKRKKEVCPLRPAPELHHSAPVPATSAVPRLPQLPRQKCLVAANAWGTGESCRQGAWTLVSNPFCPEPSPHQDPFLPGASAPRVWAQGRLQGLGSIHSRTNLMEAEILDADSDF

In the case of `O=C(Cc1ccc(Cl)s1)NC1CCCC(c2nc3ccccc3[nH]2)C1` (stereo not shown) [Example 131, N-[3-(1H-benzimidazol-2-yl)cyclohexyl]-2-(5-chloro-2-thienyl)acetamide triflouroacetate], the inhibition at 2 µM is 101%.
On the same count and under the same terms, the value for `COc1ccc(C2(C(=O)NC3CCCC(c4nc5ccccc5[nH]4)C3)CC2)cc1` (stereo not shown) [Example 132, N-[3-(1H-benzimidazol-2-yl)cyclohexyl]-1-(4-methoxyphenyl) cyclopropane-carboxamide triflouroacetate] was 78%; that for `COc1cccc2c1OCC(C(=O)NC1CCCC(c3nc4ccccc4[nH]3)C1)C2` (stereo not shown) [Example 133, N-[3-(1H-benzimidazol-2-yl)cyclohexyl]-8-methoxychrom-ane-3-carboxamide triflouroacetate] was 85%; that for `O=C(NC1CCCC(c2nc3ccccc3[nH]2)C1)c1ccc(CN2CCOCC2)o1` (stereo not shown) [Example 134, N-[3-(1H-benzimidazol-2-yl)cyclohexyl]-5-(morpholin-4-ylmethyl)-2-furamide triflouroacetate] was 101%.
Same read-out and setting: the value for `O=C(NC1CCCC(c2nc3ccccc3[nH]2)C1)c1cc(-c2ccncc2)n[nH]1` (stereo not shown) [Example 135, N-[3-(1H-benzimidazol-2-yl)cyclohexyl]-3-pyridin-4-yl-1H-pyrazole-5-carboxamide triflouroacetate] was 100%.
The same measure, in the same setting: the result for `Cc1n[nH]c(C)c1/C=C/C(=O)NC1CCCC(c2nc3ccccc3[nH]2)C1` (stereo not shown) [Example 136, (2E)-N-[3-(1H-benzimidazol-2-yl)cyclohexyl]-3-(3,5-dimethyl-1H-pyrazol-4-yl)acrylamide triflouroacetate] reads 86%; that for `O=C1CCc2cc(C(=O)NC3CCCC(c4nc5ccccc5[nH]4)C3)ccc2N1` (stereo not shown) [Example 137, N-[3-(1H-benzimidazol-2-yl)cyclohexyl]-2-oxo-1,2,3,4-tetrahydroquino-line-6-carboxamide triflouroacetate], 108%.
As for `O=C(CN1C[C@@H]2CC[C@H]1C2)NC1CCCC(c2nc3ccccc3[nH]2)C1` (stereo partly drawn) [Example 138, 2-[(1S,4R)-2-azabicyclo[2.2.1]hept-2-yl]-N-[3-(1H-benzimidazol-2-yl)cyclohexyl]-acetamide triflouroacetate], the inhibition at 2 µM turned out to be 100%.
`COc1cc(C(=O)NC2CCCC(c3nc4ccccc4[nH]3)C2)cc2c1OCCO2` (stereo not shown) [Example 139, N-[3-(1H-benzimidazol-2-yl)cyclohexyl]-8-methoxy-2,3-dihydro-1,4-benzodioxine-6-carboxamide triflouroacetate]: the inhibition at 2 µM is 105%.
Same read-out and setting: the value for `O=C(NC1CCCC(c2nc3ccccc3[nH]2)C1)c1ccc2cc[nH]c2c1` (stereo not shown) [Example 140, N-[3-(1H-benzimidazol-2-yl)cyclohexyl]-1H-indole-6-carboxamide HCl] was 110%.
`O=C(NC1CCCC(c2nc3ccccc3[nH]2)C1)c1ccc2cc[nH]c2c1` (stereo not shown) [Example 141, N-[3-(1H-benzimidazol-2-yl)cyclohexyl]-1H-indole-6-carboxamide triflouroacetate]: under “2 μM test compound”, the “SMO CELL % INHIBITION @ 2 μM” value is given as 110%.
In the case of `CC(C(=O)NC1CCCC(c2nc3ccccc3[nH]2)C1)n1cccn1` (stereo not shown) [Example 142, N-[3-(1H-benzimidazol-2-yl)cyclohexyl]-2-(1H-pyrazol-1-yl)propanamide triflouroacetate], the inhibition at 2 µM came to 69%.
For `Cn1c(=O)[nH]c2cc(C(=O)NC3CCCC(c4nc5ccccc5[nH]4)C3)ccc21` (stereo not shown) [Example 143, N-[3-(1H-benzimidazol-2-yl)cyclohexyl]-1-methyl-2-oxo-2,3-dihydro-1H-benzimidazole-5-carboxamide triflouroacetate], the inhibition at 2 µM is 87%.
With `O=C(Cc1nc2cc(Cl)ccc2[nH]1)NC1CCCC(c2nc3ccccc3[nH]2)C1` (stereo not shown) [Example 144, N-[3-(1H-benzimidazol-2-yl)cyclohexyl]-2-(5-chloro-1H-benzimidazol-2-yl)acetamide HCl], the inhibition at 2 µM turned out to be 105%.
The same measure, in the same setting: the value for `CCn1nc(C(C)C)cc1C(=O)NC1CCCC(c2nc3ccccc3[nH]2)C1` (stereo not shown) [Example 146, N-[3-(1H-benzimidazol-2-yl)cyclohexyl]-1-ethyl-3-isopropyl-1H-pyrazole-5-carboxamide triflouroacetate] was 61%; that for `O=C(NC1CCCC(c2nc3ccccc3[nH]2)C1)c1ccc(O)c(Cl)c1` (stereo not shown) [Example 147, N-[3-(1H-benzimidazol-2-yl)cyclohexyl]-3-chloro-4-hydroxybenz-amide triflouroacetate] was 68%; that for `O=C(CCc1nc2ccccc2[nH]1)NC1CCCC(c2nc3ccccc3[nH]2)C1` (stereo not shown) [Example 148, 3-(1H-benzimidazol-2-yl)-N-[3-(1H-benzimidazol-2-yl)cyclohexyl]-propanamide triflouroacetate] was 50%.
Same read-out and setting: the result for `O=C(N[C@@H]1CCC[C@H](c2nc3cc(Br)ccc3[nH]2)C1)c1ccc2c(c1)OCCO2` [Example 149, N-[(1R,3S)-3-(5-bromo-1H-benzimidazol-2-yl)cyclohexyl]-2,3-dihydro-1,4-benzodioxine-6-carboxamide HCl] reads 103%; that for `O=C(N[C@H]1CCC[C@@H](c2nc3cc(Br)ccc3[nH]2)C1)c1ccc2c(c1)OCCO2` [Example 150, N-[(1S,3R)-3-(5-bromo-1H-benzimidazol-2-yl)cyclohexyl]-2,3-dihydro-1,4-benzodioxine-6-carboxamide HCl], 45%; that for `O=C(N[C@@H]1CCC[C@H](c2nc3cc(C(F)(F)F)ccc3[nH]2)C1)c1ccc2c(c1)OCCO2` [Example 151, N-{(1R,3S)-3-[5-(trifluoromethyl)-1H-benzimidazol-2-yl]cyclohexyl}-2,3-dihydro-1,4-benzodioxine-6-carboxamide HCl], 106%.
The same measure, in the same setting: the value for `O=C(N[C@H]1CCC[C@@H](c2nc3cc(C(F)(F)F)ccc3[nH]2)C1)c1ccc2c(c1)OCCO2` [Example 152, N-{(1S,3R)-3-[5-(trifluoromethyl)-1H-benzimidazol-2-yl]cyclohexyl}-2,3-dihydro-1,4-benzodioxine-6-carboxamide HCl] was 80%; that for `O=C(NC1CCCC(c2nc3ccccc3[nH]2)C1)c1cc(-c2ccccn2)n[nH]1` (stereo not shown) [Example 153, N-[3-(1H-benzimidazol-2-yl)cyclohexyl]-3-pyridin-2-yl-1H-pyrazole-5-carboxamide triflouroacetate] was 46%; that for `O=C(Cn1ccc2ccccc2c1=O)NC1CCCC(c2nc3ccccc3[nH]2)C1` (stereo not shown) [Example 154, N-[3-(1H-benzimidazol-2-yl)cyclohexyl]-2-(1-oxoisoquinolin-2(1H)-yl)acetamide triflouroacetate] was 57%.
As to `CCc1n[nH]c(C(=O)NC2CCCC(c3nc4ccccc4[nH]3)C2)c1C` (stereo not shown) [Example 155, N-[3-(1H-benzimidazol-2-yl)cyclohexyl]-3-ethyl-4-methyl-1H-pyrazol-5-carboxamide triflouroacetate], the inhibition at 2 µM is 64%.
Still for that read-out and setting: the result for `Cc1ccn2cc(CCC(=O)NC3CCCC(c4nc5ccccc5[nH]4)C3)nc2c1` (stereo not shown) [Example 156, N-[3-(1H-benzimidazol-2-yl)cyclohexyl]-3-(7-methylimidazo [1,2-a]pyridin-2-yl)propanamide triflouroacetate] reads 53%.
Still for that read-out and setting: the result for `CC(=O)c1ccc(OCC(=O)NC2CCCC(c3nc4ccccc4[nH]3)C2)cc1` (stereo not shown) [Example 157, 2-(4-acetylphenoxy)-N-[3-(1H-benzimidazol-2-yl)cyclohexyl] acetamide triflouroacetate] reads 52%.
On to `O=C(NC1CCCC(c2nc3ccccc3[nH]2)C1)c1ccc2[nH]c(=O)[nH]c(=O)c2c1` (stereo not shown) [Example 158, N-[3-(1H-benzimidazol-2-yl)cyclohexyl]-2,4-dioxo-1,2,3,4-tetrahydroquin-azoline-6-carboxamide triflouroacetate], for which the inhibition at 2 µM is 73%.
Same read-out and setting: the result for `Cn1ccnc1-c1ccc(C(=O)NC2CCCC(c3nc4ccccc4[nH]3)C2)cc1` (stereo not shown) [Example 159, N-[3-(1H-benzimidazol-2-yl)cyclohexyl]-4-(1-methyl-1H-imidazol-2-yl)benzamide triflouroacetate] reads 78%; that for `O=C(NC1CCCC(c2nc3ccccc3[nH]2)C1)c1ccc(-c2cnco2)cc1` (stereo not shown) [Example 160, N-[3-(1H-benzimidazol-2-yl)cyclohexyl]-4-(1,3-oxazol-5-yl)benzamide triflouroacetate], 72%.
Still for that read-out and setting: the result for `O=C(NC1CCCC(c2nc3ccccc3[nH]2)C1)c1ccc2snnc2c1` (stereo not shown) [Example 161, N-[3-(1H-benzimidazol-2-yl)cyclohexyl]-1,2,3-benzothiadiazole-5-carboxamide triflouroacetate] reads 54%; that for `CN(C)S(=O)(=O)CC(=O)NC1CCCC(c2nc3ccccc3[nH]2)C1` (stereo not shown) [Example 162, N-[3-(1H-benzimidazol-2-yl)cyclohexyl]-2-{(dimethylamino)-sulfonyl]-acetamide triflouroacetate], 71%.
Same read-out and setting: the result for `O=C(NC1CCCC(c2nc3ccccc3[nH]2)C1)c1ccc(-n2cnnn2)cc1` (stereo not shown) [Example 163, N-[3-(1H-benzimidazol-2-yl)cyclohexyl]-4-(1H-tetrazol-1-yl)benzamide triflouroacetate] reads 95%; that for `Cn1ccnc1C(=O)NC1CCCC(c2nc3ccccc3[nH]2)C1` (stereo not shown) [Example 164, N-[3-(1H-benzimidazol-2-yl)cyclohexyl]-1-methyl-1H-imidazole-2-carboxamide triflouroacetate], 106%; that for `COc1cc(C(=O)N[C@@H]2CCC[C@H](c3nc4ccccc4[nH]3)C2)ccn1` [Example 165, N-[(1R,3S)-3-(1H-benzimidazol-2-yl)cyclohexyl]-2-methoxyisonico-tinamide HCl], 63%.

These data come from patent US20100029615A1, “BENZIMIDAZOLE DERIVATIVES” (priority 2006, published 2010).
